Results published in patent US20260083865A1, “PROSTATE SPECIFIC MEMBRANE ANTIGEN (PSMA) LIGANDS AND USE THEREOF” (priority 2022, published 2026).
Like-named read-outs stand apart in the source and are kept apart here. Numbered stars: 1 amine (or outer) side, 2 acyl side, 3 side chain; on linkers, the order of the positions; unused ones are H or OH. Bridge positions count the residues as written; N and C are the ends. Square brackets hold non-standard residues; d marks the D form. Peptide text beside a SMILES is read from it. * marks the point of attachment. Acetyl(1-DOTA-4-piperidyl) = O=C(O)CN1CCN(CC(=O)O)CCN(CC(=O)N2CCC(CC(=O)*)CC2)CCN(CC(=O)O)CC1; DOTA = O=C(O)CN1CCN(CC(=O)O)CCN(CC(=O)*)CCN(CC(=O)O)CC1; Phe(3-CF3) = N[C@@H](Cc1cccc(C(F)(F)F)c1)C(=O)O; Tyr(3-I) = N[C@@H](Cc1ccc(O)c(I)c1)C(=O)O; Phe(4-Cl) = N[C@@H](Cc1ccc(Cl)cc1)C(=O)O; Propanoyl(3-SO2NH2) = NS(=O)(=O)CCC(=O)*; Phe(4-F) = N[C@@H](Cc1ccc(F)cc1)C(=O)O; Arg(Me) = CNC(=N)NCCC[C@H](N)C(=O)O; hArg = N=C(N)NCCCC[C@H](N)C(=O)O; X1 = O=C(CC1CCN([*:1])CC1)[*:2]; X6 = O=C(CN1CCN([*:1])CC1)[*:2]; Lys(Me) = CNCCCC[C@H](N)C(=O)O; Tle = CC(C)(C)[C@H](N)C(=O)O; αMeS = C[C@](N)(CO)C(=O)O; Api = NC1(C(=O)O)CCNCC1; Hexanoyl = CCCCCC(=O)*; Aib = CC(C)(N)C(=O)O

Columns and labels:
[1] = molecular target: T1, PSMA-expressing C4-2 cells (Homo sapiens, UniProt Q04609); assay: FACS binding assay (competition with 50 nM PSM-0183); conditions: for IC50: read-out: pIC50 [C4-2] CAT (converted)
T1 construct: PSMA-expressing C4-2 cells (ATCC, Cat. No. CRL-3314) were cultured in RPMI-1640; host or cells: C4-2 cells
T1 sequence (Q04609 whole entry): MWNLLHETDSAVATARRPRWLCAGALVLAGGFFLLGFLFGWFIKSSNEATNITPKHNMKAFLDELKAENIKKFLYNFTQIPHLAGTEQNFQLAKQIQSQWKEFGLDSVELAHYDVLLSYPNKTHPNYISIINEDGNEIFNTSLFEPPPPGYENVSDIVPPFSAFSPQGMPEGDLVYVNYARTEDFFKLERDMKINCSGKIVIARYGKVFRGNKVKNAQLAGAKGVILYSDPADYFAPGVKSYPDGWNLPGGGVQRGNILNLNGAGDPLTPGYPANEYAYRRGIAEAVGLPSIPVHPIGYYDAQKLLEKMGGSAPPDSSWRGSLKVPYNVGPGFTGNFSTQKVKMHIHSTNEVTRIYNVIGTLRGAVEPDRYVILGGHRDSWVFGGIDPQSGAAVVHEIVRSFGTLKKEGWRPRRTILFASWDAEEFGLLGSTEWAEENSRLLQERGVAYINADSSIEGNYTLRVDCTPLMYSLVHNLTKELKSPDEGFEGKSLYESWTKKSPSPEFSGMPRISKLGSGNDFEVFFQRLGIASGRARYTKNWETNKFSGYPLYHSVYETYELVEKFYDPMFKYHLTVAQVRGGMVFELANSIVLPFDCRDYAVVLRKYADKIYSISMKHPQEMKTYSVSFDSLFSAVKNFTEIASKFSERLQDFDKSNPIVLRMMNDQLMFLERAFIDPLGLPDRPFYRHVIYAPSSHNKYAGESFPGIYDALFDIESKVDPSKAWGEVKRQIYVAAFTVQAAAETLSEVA
Outline: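 Competition format: fluorescent tracer PSM-0183 (50 nM) displaced from PSMA on C4-2 cells by a test compound titration over 1 h at 4 °C. Bound tracer was quantified as flow-cytometric AF488 median fluorescence after washing. Four-parameter logistic fits of MFI data gave IC50 and pIC50.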

[2] = molecular target: T2, Fc-fusion protein of human PSMA (hPSMA-Fc) (Homo sapiens, UniProt Q04609); assay: Surface plasmon resonance assay (Biacore T200, single cycle kinetic); type: binding; conditions: read-out: pKD CAT (converted)
T2 construct: purchased Acro Biosystems PSA-H5264
T2 sequence (Q04609 44-750 limits assumed): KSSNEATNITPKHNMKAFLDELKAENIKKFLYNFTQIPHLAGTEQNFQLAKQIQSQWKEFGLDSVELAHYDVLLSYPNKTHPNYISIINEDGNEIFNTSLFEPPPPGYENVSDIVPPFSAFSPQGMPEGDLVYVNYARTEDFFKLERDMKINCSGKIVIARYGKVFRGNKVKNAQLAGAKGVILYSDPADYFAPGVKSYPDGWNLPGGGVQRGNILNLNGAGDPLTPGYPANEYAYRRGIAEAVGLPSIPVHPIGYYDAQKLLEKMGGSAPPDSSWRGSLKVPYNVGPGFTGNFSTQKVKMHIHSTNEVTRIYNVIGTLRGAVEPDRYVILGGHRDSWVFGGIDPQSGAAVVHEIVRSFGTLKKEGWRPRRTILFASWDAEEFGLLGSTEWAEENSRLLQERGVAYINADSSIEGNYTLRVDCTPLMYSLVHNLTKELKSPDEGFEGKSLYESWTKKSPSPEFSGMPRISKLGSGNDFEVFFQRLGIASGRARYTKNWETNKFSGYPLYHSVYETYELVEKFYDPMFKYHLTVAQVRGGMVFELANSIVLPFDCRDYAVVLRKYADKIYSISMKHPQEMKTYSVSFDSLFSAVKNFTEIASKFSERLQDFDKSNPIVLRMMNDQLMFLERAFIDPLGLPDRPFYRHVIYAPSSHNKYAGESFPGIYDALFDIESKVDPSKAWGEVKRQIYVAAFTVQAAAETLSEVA
Outline: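 KD, expressed as pKD, came from 1:1 Langmuir fits of reference- and buffer-blank-subtracted SPR data. The runs were single-cycle kinetics at 25° C in HBST/0.1% DMSO over human PSMA-Fc, captured to ~1000 RU on a peptide-coated CM5 surface and regenerated with 10 mM glycine pH 1.5.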

[3] = FACS binding, PSMA-expressing C4-2 cells, pIC50 category
[4] = PSMA SPR assay, hPSMA-Fc, 25° C., pKD category
[5] = pIC50 category of FACS binding, C4-2 cells
[6] = pKD category for PSMA SPR activity assay, hPSMA-Fc, 25° C.
[7] = FACS binding, C4-2 cells, competition with 50 nM PSM-0183, category
[8] = SPR, hPSMA-Fc, single cycle kinetic, 25° C., category

SMILES | IC50 [1, 5] | Kd [2, 6] | further results
CC(=O)N[C@H](C(=O)NC(C)(C)C(=O)N[C@@H](Cc1ccccc1)C(=O)N[C@H]1CSSC[C@@H](C(=O)N[C@H](C(=O)N[C@H](C(=O)N[C@@H](CC(=O)O)C(N)=O)[C@@H](C)O)C(C)(C)C)NC(=O)[C@H](CC(N)=O)NC(=O)[C@H](C)NC(=O)[C@H](CCCNC(=N)N)NC(=O)[C@H](CCCCN)NC1=O)[C@@H](C)O [PSM-0315, Ac-Thr-Aib-Phe-[Cys-Lys-arg-Als-Asn-Cys]-Tle-Thr-Asp-NH2] (Ac-T[Aib]FCKRANC[Tle]TD-NH2; disulfide 4-9) | – | – | pIC50 [C4-2] CAT [1, 3]: A (pIC50 values >6.7); Kd [2, 4]: 12.6 to 126 nM
CNCCCC[C@@H]1NC(=O)[C@@H](NC(=O)[C@H](Cc2cccc(C(F)(F)F)c2)NC(=O)C(C)(C)NC(=O)[C@@H](NC(=O)CC2CCN(C(=O)CN3CCN(CC(=O)O)CCN(CC(=O)O)CCN(CC(=O)O)CC3)CC2)[C@@H](C)O)CSSC[C@@H](C(=O)N[C@H](C(N)=O)C(C)(C)C)NC(=O)[C@H](CC(N)=O)NC(=O)C(C)(C)NC(=O)[C@H](CCCNC(=N)NC)NC1=O [PSM-0396, DOTA-Cmp-Thr-Aib-Mtf-[Cys-Lys(Me)-Arg(Me)-Aib-Asn-Cys]-Tle-NH2] ({DOTA}-[X1]T[Aib][Phe(3-CF3)]C[Lys(Me)][Arg(Me)][Aib]NC[Tle]-NH2; disulfide 5-10) | < 200 nM | < 12.6 nM | –
C[C@@H](O)[C@H](NC(=O)[C@@H](NC(=O)[C@@H]1CSSC[C@H](NC(=O)[C@H](Cc2ccccc2)NC(=O)C(C)(C)NC(=O)CN2CCN(C(=O)CN3CCN(CC(=O)O)CCN(CC(=O)O)CCN(CC(=O)O)CC3)CC2)C(=O)N[C@@H](CCCCN)C(=O)N[C@@H](CCCNC(=N)N)C(=O)NC(C)(C)C(=O)N[C@@H](CC(N)=O)C(=O)N1)C(C)(C)C)C(N)=O [PSM-0413, DOTA-PPAc-Aib-Phe-[Cys-Lys-Arg-Aib-Asn-Cys]-Tle-Thr-NH2] ({DOTA}-[X6][Aib]FCKR[Aib]NC[Tle]T-NH2; disulfide 4-9) | < 200 nM | 12.6 to 126 nM | –
C[C@@H](O)[C@H](NC(=O)[C@@H](NC(=O)[C@@H]1CSSC[C@H](NC(=O)[C@H](Cc2ccc(Cl)cc2)NC(=O)C(C)(C)NC(=O)[C@@H](NC(=O)CC2CCN(C(=O)CN3CCN(CC(=O)O)CCN(CC(=O)O)CCN(CC(=O)O)CC3)CC2)[C@@H](C)O)C(=O)N[C@@H](CCCCNC(=N)N)C(=O)N[C@@H](CCCNC(=N)N)C(=O)NC(C)(C)C(=O)N[C@@H](CC(N)=O)C(=O)N1)C(C)(C)C)C(N)=O [PSM-0225, DOTA-Cmp-Thr-Aib-Pcf-[Cys-Har-Arg-Aib-Asn-Cys]-Tle-Thr-NH2] ({DOTA}-[X1]T[Aib][Phe(4-Cl)]C[hArg]R[Aib]NC[Tle]T-NH2; disulfide 5-10) | – | – | IC50 [1, 7]: < 200 nM; Kd [2, 8]: < 12.6 nM
CC(=O)N[C@H](C(=O)NC(C)(C)C(=O)N[C@@H](Cc1ccccc1)C(=O)N[C@H]1CSSC[C@@H](C(=O)N[C@H](C(=O)N[C@H](C(N)=O)[C@@H](C)O)C(C)(C)C)NC(=O)[C@H](CC(N)=O)NC(=O)C2(CCN(C(=O)CN3CCN(CC(=O)O)CCN(CC(=O)O)CCN(CC(=O)O)CC3)CC2)NC(=O)[C@H](CCCNC(=N)N)NC(=O)[C@H](CCCCN)NC1=O)[C@@H](C)O [PSM-0321, Ac-Thr-Aib-Phe-[Cys-Lys-Arg-Apc (DOTA)-Asn-Cys]-Tle-Thr-NH2] (Ac-T[Aib]FCKR[Api](DOTA)NC[Tle]T-NH2; disulfide 4-9) | – | – | IC50 [1, 3]: < 200 nM; Kd [2, 4]: < 12.6 nM
C[C@@H](O)[C@H](NC(=O)[C@@H](NC(=O)[C@@H]1CSSC[C@H](NC(=O)[C@H](Cc2ccc(Cl)cc2)NC(=O)C(C)(C)NC(=O)CCS(N)(=O)=O)C(=O)N[C@@H](CCCCN)C(=O)N[C@@H](CCCNC(=N)N)C(=O)NC(C)(C)C(=O)N[C@@H](CC(N)=O)C(=O)N1)C(C)(C)C)C(=O)N1CCC(CC(=O)N[C@H](CCCCNC(=O)CN2CCN(CC(=O)O)CCN(CC(=O)O)CCN(CC(=O)O)CC2)C(N)=O)CC1 [PSM-0215, SaPr-Aib-Pcf-[Cys-Lys-Arg-Aib-Asn-Cys]-Tle-Thr-Cmp-lys(DOTA)-NH2] ({Propanoyl(3-SO2NH2)}-[Aib][Phe(4-Cl)]CKR[Aib]NC[Tle]T[X1][dK](DOTA)-NH2; disulfide 3-8) | – | – | IC50 [1, 7]: < 200 nM; Kd [2, 8]: 12.6 to 126 nM
CCCCCC(=O)N[C@H](C(=O)NC(C)(C)C(=O)N[C@@H](Cc1ccc(Cl)cc1)C(=O)N[C@H]1CSSC[C@@H](C(=O)N[C@H](C(=O)N[C@H](C(=O)N[C@H](CCCCNC(=O)CC2CCN(C(=O)CN3CCN(CC(=O)O)CCN(CC(=O)O)CCN(CC(=O)O)CC3)CC2)C(N)=O)[C@@H](C)O)C(C)(C)C)NC(=O)[C@H](CC(N)=O)NC(=O)C(C)(C)NC(=O)[C@H](CCCNC(=N)N)NC(=O)[C@H](CCCCN)NC1=O)[C@@H](C)O [PSM-0400, Hex-Thr-Aib-Pcf-[Cys-Lys-Arg-Aib-Asn-Cys]-Tle-Thr-lys(DOTA-Cmp)-NH2] (Hexanoyl-T[Aib][Phe(4-Cl)]CKR[Aib]NC[Tle]T[dK](Acetyl(1-DOTA-4-piperidyl))-NH2; disulfide 4-9) | < 200 nM | < 12.6 nM | –
CNCCCC[C@@H]1NC(=O)[C@@H](NC(=O)[C@H](Cc2ccc(O)c(I)c2)NC(=O)C(C)(C)NC(=O)[C@@H](NC(C)=O)[C@@H](C)O)CSSC[C@@H](C(=O)N[C@H](C(=O)N[C@H](C(N)=O)[C@@H](C)O)C(C)(C)C)NC(=O)[C@H](CC(N)=O)NC(=O)C(C)(C)NC(=O)[C@H](CCCNC(=N)NC)NC1=O [PSM-0387, Ac-Thr-Aib-Miy-[Cys-Lys(Me)-Arg(Me)-Aib-Asn-Cys]-Tle-Thr-NH2] (Ac-T[Aib][Tyr(3-I)]C[Lys(Me)][Arg(Me)][Aib]NC[Tle]T-NH2; disulfide 4-9) | > 3160 nM | > 501 nM | –
C[C@@H](O)[C@H](NC(=O)[C@@H](NC(=O)[C@@H]1CSSC[C@H](NC(=O)[C@H](Cc2ccc(Cl)cc2)NC(=O)[C@](C)(CO)NC(=O)[C@@H](NC(=O)CC2CCN(C(=O)CN3CCN(CC(=O)O)CCN(CC(=O)O)CCN(CC(=O)O)CC3)CC2)[C@@H](C)O)C(=O)N[C@@H](CCCCN)C(=O)N[C@@H](CCCNC(=N)N)C(=O)N[C@@](C)(CO)C(=O)N[C@@H](CC(N)=O)C(=O)N1)C(C)(C)C)C(N)=O [PSM-0407, DOTA-Cmp-Thr-Ams-Pcf-[Cys-Lys-Arg-Ams-Asn-Cys]-Tle-Thr-NH2] ({DOTA}-[X1]T[αMeS][Phe(4-Cl)]CKR[αMeS]NC[Tle]T-NH2; disulfide 5-10) | < 200 nM | < 12.6 nM | –
CC(=O)N[C@H](C(=O)NC(C)(C)C(=O)N[C@@H](Cc1c[nH]c2ccccc12)C(=O)N[C@H]1CSSC[C@@H](C(=O)N[C@H](C(=O)N[C@H](C(=O)N[C@@H](CC(=O)O)C(N)=O)[C@@H](C)O)C(C)(C)C)NC(=O)[C@H](CC(N)=O)NC(=O)C(C)(C)NC(=O)[C@H](CCCNC(=N)N)NC(=O)[C@H](CCCCN)NC1=O)[C@@H](C)O [PSM-0587, Ac-Thr-Aib-Trp-[Cys-Lys-Arg-Aib-Asn-Cys]-Tle-Thr-Asp-NH2] (Ac-T[Aib]WCKR[Aib]NC[Tle]TD-NH2; disulfide 4-9) | – | – | IC50 ([1]; FACS binding, C4-2 cells, category): < 200 nM; Kd ([2]; PSMA SPR assay, category): < 12.6 nM
CNCCCC[C@@H]1NC(=O)[C@@H](NC(=O)[C@H](Cc2ccc(F)cc2)NC(=O)C(C)(C)NC(=O)[C@@H](NC(=O)CC2CCN(C(=O)CN3CCN(CC(=O)O)CCN(CC(=O)O)CCN(CC(=O)O)CC3)CC2)[C@@H](C)O)CSSC[C@@H](C(=O)N[C@H](C(N)=O)C(C)(C)C)NC(=O)[C@H](CC(N)=O)NC(=O)C(C)(C)NC(=O)[C@H](CCCNC(=N)NC)NC1=O [PSM-0395, DOTA-Cmp-Thr-Aib-Pff-[Cys-Lys(Me)-Arg(Me)-Aib-Asn-Cys]-Tle-NH2] ({DOTA}-[X1]T[Aib][Phe(4-F)]C[Lys(Me)][Arg(Me)][Aib]NC[Tle]-NH2; disulfide 5-10) | < 200 nM | < 12.6 nM | –
